In patent publication US10611729B2, “Farnesoid X receptor antagonists” (City of Hope, priority 2014, dated 2020):
Where two headings read alike, the source gives them in different places.

How the values were obtained:
FXR [1] = target: T1, FXR (Homo sapiens, UniProt Q96RI1); experiment: FXR TR-FRET binding assay (DY246 fluorescent probe); details: for inhibition at 0.164 µM: at 164 nM; for IC50: mean ± SE
T1 sequence (Q96RI1 262-486 limits assumed): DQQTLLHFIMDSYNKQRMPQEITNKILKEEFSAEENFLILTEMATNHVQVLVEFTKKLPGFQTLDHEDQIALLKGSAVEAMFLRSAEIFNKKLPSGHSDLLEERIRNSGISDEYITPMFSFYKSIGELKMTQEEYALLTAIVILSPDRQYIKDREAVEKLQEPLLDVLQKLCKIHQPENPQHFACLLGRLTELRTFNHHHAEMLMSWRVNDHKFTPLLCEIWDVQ
Description: The FXR TR-FRET binding assay was performed as previously described^23 with modifications. […] The plate was spun down after a brief shake and incubated at room temperature for 20 min. The TR-FRET emission signals at 520 nm and 490 nm for each well was then collected using a PHERAstar plate reader (BMG LABTECH, Cary, N.C.) with an excitation wavelength of 337 nm, 100-μs delay time, and 200-μs integration time. The 520 nm/490 nm ratio from each well was then calculated. […] The % inhibition of tested chemicals at given concentration was calculated based on negative and positive controls using equation 1.

[2] = test system: GeneBLAzer FXR-UAS-bla HEK 293T cells; details: for GB FXR Cell Cyto % Inh.: human, 16 h, 40 μM
Description: (§2) To examine if certain chemical antagonistic effect was caused by cytotoxicity, the same GeneBLAzer FXR cells were used to perform cytotoxicity assay. This assay was set up like the FXR agonistic assay, with the exception of signal reading. Instead of detecting the reporter activities, CellTiter-Glo® assay was used to detect cell viability. DMSO with cells or without cells group were served as negative (0% Inhibition) or positive (100% Inhibition), respectively.
(§3) Cytotoxicity assays were performed side-by-side with the FXR agonistic assay using GeneBLAzer FXR-UAS-bla HEK 293T cells with CellTiter-Glo® Luminescent Cell Viability Assay reagent (Promega). Briefly, cells were maintained in DMEM supplemented with 10% dialyzed FBS, 0.1 mM non-essential amino acids, 25 mM HEPES, 100 μg/ml of hygromycin B, 100 μg/ml of zeocin, 100 units/ml penicillin and 100 μg/ml streptomycin in regular tissue culture flasks. […] As a positive control, the wells in column 24 of each plate were filled with 30 μL assay medium along with 0.5% DMSO. The final DMSO concentration was 0.5% in each assay well. After a 16 h incubation in a cell culture incubator at 37° C., the cell plates were cooled at room temperature for 20 min and then CellTiter-Glo® reagent 20 μl/well was added followed by an incubation for 20 min in the dark to allow the development of optimal luminescence signal. The luminescence signal from each well in plates was collected with an Envision plate reader equipped with Ultra-sensitive Luminescence detector. The DMSO group and no cell group served as negative (0% activation) and positive (100% activation) controls, respectively. The % inhibition was calculated using equation 4 below.

FXR [3] = target: T1, FXR; experiment: GeneBLAzer FXR cell-based antagonistic assay (in presence of 400 nM GW4064); parameters: the Gal4 DBD was fused to the LBD of FXR in this assay; host or cells: GeneBLAzer FXR-UAS-bla HEK 293T cells; details: for IC50: with 400 nM GW4064, read-out: GB FXR Cell Anta. IC50
Description: A GeneBLAzer FXR cell-based assay was used to investigate the cellular activities of the 1,3,4-trisubstituted-pyrazol-4-carboxamide analogs. The assay detects the levels of a […] reporter controlled by a promoter containing the binding site of the DNA binding domain (DBD) of the GAL4 transcription factor; the Gal4 DBD was fused to the LBD of FXR in this assay.^35
(§1) FXR transactivation assays were performed using GeneBLAzer FXR-UAS-bla HEK 293T cells (Invitrogen). Cells were maintained according to the manufacturer's instructions. […] Plates were then incubated in dark for 90 min at room temperature before measuring the fluorescent emissions at 460 nm and 535 nm (using excitation at 400 nm) with an Envision plate reader with bottom read capacity. After background signal subtraction for individual emission channels, emission signals at 460 and 535 nm from each well were used to determine the ratio of 460 nm/535 nm. […] The % activation was calculated using equation 2.
The % inhibition was calculated using equation 3.

FXR [4] = target: T1, FXR; experiment: GeneBLAzer FXR cell-based agonistic assay; parameters: the Gal4 DBD was fused to the LBD of FXR in this assay; host or cells: GeneBLAzer FXR-UAS-bla HEK 293T cells; details: without GW4064, 16 h
Description: The reporter assays were performed after a16 h incubation.
as §1

[5] = test system: GeneBLAzer FXR-UAS-bla HEK 293T cells; experiment: Cytotoxicity assay in GeneBLAzer FXR cells (CellTiter-Glo); details: class symbol NT
Description: as §2, §3

[6] = read-out: FXR TR-FRET Binding % Inh.
[7] = read-out: GB FXR Cell Anta. % Inh.

SMILES | IC50 (FXR [1]) [µM] | inhibition at 40 µM (FXR [3]; [7]) [%] | IC50 (FXR [3]) [µM] | GB FXR Cell Cyto % Inh. [2] | inhibition at 40 µM (FXR [1]; [6]) [%] | activity against FXR at 1 μM (FXR [3]) | also measured
COc1cccc(Cn2cc(C(=O)Nc3ccc(C)c(S(=O)(=O)N4CCOCC4)c3)c(-c3ccc(C)cc3)n2)c1 [Compound 4j, 1-(3-Methoxybenzyl)-N-(4-methyl-3-(morpholinosulfonyl)phenyl)-3-(p-tolyl)-1H-pyrazole-4-carboxamide] | 0.0075 | 98.9 ± 4.3 | 0.469 ± 0.0084 | – | – | – | inhibition at 0.164 µM (FXR [1]; [6]): 130 ± 5.4%; fold more potent than Z26476908 in FXR TR-FRET binding assay (FXR [1]; ratio of IC50 values): 5.26 fold; cytotoxicity [2]: no cytotoxicity; FXR antagonistic activity, SAR statement in words (FXR [3]): enhanced antagonistic activity; fold more potent than Z26476908 in antagonistic assay (FXR [3]; ratio of IC50 values): 4.59 fold; FXR agonistic activity (FXR [4]): no FXR agonistic activity
Cc1ccc(NC(=O)c2cn(C(C)C)nc2-c2ccc(C(F)(F)F)cc2)cc1S(=O)(=O)N1CCOCC1 [Compound 4p, 1-Isopropyl-N-(4-methyl-3-(morpholinosulfonyl)phenyl)-3-(4-(trifluoromethyl)phenyl)-1H-pyrazole-4-carboxamide] | 0.0775 ± 0.0037 | 100 ± 3.7 | 1.95 ± 0.28 | 19.5 ± 1.1% | – | – | inhibition at 4.4 µM (FXR [1]; [6]): 133 ± 5.3%
Cc1ccc(-c2nn(C(C)C)cc2C(=O)N(C)c2ccc(C)c(S(=O)(=O)N3CCOCC3)c2)cc1 [Compound 8-1, 1-Isopropyl-N-methyl-N-(4-methyl-3-(morpholinosulfonyl)phenyl)-3-(p-tolyl)-1H-pyrazole-4-carboxamide] | 0.489 ± 0.0212 | 86.4 ± 2.8 | 16.2 | 15.0 ± 0.7% | 133 ± 6.2 | weak activity | –
COc1cccc(Cn2cc(C(=O)N(C)c3ccc(C)c(S(=O)(=O)N4CCOCC4)c3)c(C(C)C)n2)c1 [Compound 8-2, 3-Isopropyl-1-(3-methoxybenzyl)-N-methyl-N-(4-methyl-3-(morpholinosulfonyl)phenyl)-1H-pyrazole-4-carboxamide] | 5.33 ± 0.24 | – | – | 13.5 ± 0.4 (40 μM) % | 80.3 ± 5.2 | weak activity | inhibition at 20 µM (FXR [3]; [7]): 2.4 ± 0.1%
COc1cccc(Cn2cc(C(=O)N(C)c3ccc(C)c(S(=O)(=O)N4CCOCC4)c3)c(-c3cccc(OC)c3)n2)c1 [Compound 8-3, 1-(3-Methoxybenzyl)-3-(3-methoxyphenyl)-N-methyl-N-(4-methyl-3-(morpholinosulfonyl)phenyl)-1H-pyrazole-4-carboxamide] | 3.81 ± 0.2 | 23.8 ± 0.4 | – | 19.7 ± 0.4 (40 μM) % | 69.7 ± 3.5 | weak activity | –
Cc1ccc(-c2nn(C(C)C)cc2CNc2ccc(C)c(S(=O)(=O)N3CCOCC3)c2)cc1 [Compound 9-1, N-((1-Isopropyl-3-(p-tolyl)-1H-pyrazol-4-yl)methyl)-4-methyl-3-(morpholinosulfonyl)aniline] | 2.04 ± 0.02 | 36.8 ± 0.3 | – | 10.5 ± 0.3% | – | – | inhibition at 13.3 µM (FXR [1]; at 13.3 μM, read-out: FXR TR-FRET Binding % Inh.): 99.5 ± 2.6%
COc1cccc(Cn2cc(CNc3ccc(C)c(S(=O)(=O)N4CCOCC4)c3)c(C(C)C)n2)c1 [Compound 9-2, N-((3-Isopropyl-1-(3-methoxybenzyl)-1H-pyrazol-4-yl)methyl)-4-methyl-3-(morpholinosulfonyl)aniline] | 2.31 ± 0.32 | 64.8 ± 1.9 | 27.8 ± 1.54 | 13.9 ± 0.6 (40 μM) % | – | – | inhibition at 4.4 µM (FXR [1]; [6]): 72.5 ± 2.7%
Cc1ccc(-c2nn(-c3ccccc3)cc2C(=O)Nc2ccc(C)c(S(=O)(=O)N3CCOCC3)c2)cc1 [Compound Z26476908, reference compound] | 0.047 ± 0.0051 | 77.2 ± 2.2 | 2.62 | 17.9 ± 0.5% | – | – | inhibition at 0.164 µM (FXR [1]; [6]): 100 ± 5.2%
CC(C)c1onc(-c2c(Cl)cccc2Cl)c1COc1ccc(/C=C/c2cccc(C(=O)O)c2)c(Cl)c1 [GW4064] | – | – | – | – | – | – | GB FXR Cell Cyto % Inh. [5]: NT (NT: Not toxic (toxicity less than 5%))
C[C@H](CCC(=O)O)[C@H]1CC[C@H]2[C@@H]3CC[C@@H]4C[C@H](O)CC[C@]4(C)[C@H]3CC[C@]12C [Lithocholic Acid, lithocholic acid] | – | – | – | – | – | – | GB FXR Cell Cyto % Inh. [5]: NT (NT: Not toxic (toxicity less than 5%))
